From US20020022742A1, “Salt forms of an HIV protease inhibitor” (priority 2000, published 2002) come the findings set out here.

In one experiment the target is HIV protease (Human immunodeficiency virus type 1 group M subtype B, UniProt P04585). Description: HIV protease inhibition (test only mentioned). Type of experiment: biochemical. Particulars: stated in words only, no value given.
The test system of another experiment is HIV-1 (RF). In words: HIV RNA assay, microplate based compound evaluation in HIV-1 infected MT-2 cells. The conditions noted are these: Human immunodeficiency virus 1, MT2, 72 h; HIV-1 (RF) infected MT-2 cells, 3 days of culture; virus dilutions selected to result in this value (standardization of inoculum); read-out: IC90 (concentration of compound required to reduce the HIV RNA level by 90%). Type of experiment: cell-based.

Converted amounts (≈) assume the structure as drawn.

`CC(C)CN(C[C@@H](O)[C@H](Cc1ccccc1)NC(=O)[C@@H](NC(=O)CNCc1cccc(F)c1)C(C)(C)C)S(=O)(=O)c1ccc(N)cc1` [Compound A]: the “HIV protease inhibitory activity” value at HIV protease was “potent HIV protease inhibitor”. Regarding `Nc1ccn([C@H]2CC[C@@H](CO)O2)c(=O)n1` [ddC, dideoxycytidine], the IC90 in the experiment with HIV-1 (RF) is 0.2 µg/mL (≈ 0.947 µM).
